Measured values: US20120029045A1, “METHOD FOR TREATING PORT WINE STAINS” (SHANGHAI FUDAN-ZHANGJIANG BIO-PHARMACEUTICAL CO., LTD., priority 2010, published 2012)

Legend:
[1] = test system: port wine stain lesion; assay: PDT for PWS, therapeutic effect assessment; type: in vivo, human
Experimental: The effectiveness of PWS treatment with […] is categorized as being Excellent (I), Good (II), Effective (III) or Ineffective (IV). […] [table] A solution of 1 ml saline was injected in the superficial vein (e.g. median cubital vein) of patients to ensure no liquid leaked into tissues adjacent to the blood vessels into which the injection was made. At the same site, HMME was injected intravenously for 20 minutes with a constant flow rate by using an infusion pump. The doses applied were 2.5 mg/kg body weight or 5.0 mg/kg body weight. Next, 2-4 ml of saline solution was again injected to prevent the drugs from aggregating locally. Irradiation with KTP532 laser was then applied to the patient's lesion site 0-10 minutes after the start of injection, for a total duration of irradiation of either 20 minutes (denoted as the 20 min group), or 30 minutes (denoted as the 30 minute group). […] When irradiation was started immediately after the start of injection, the overlap between the injection and irradiation was about 20 minutes, when irradiation started 5 minutes after the start of injection, the overlap between drug injection and light irradiation was approximately 15 minutes, and when irradiation was started 10 minutes after the start of injection, the overlap was about 10 minutes. The therapeutic results were measured 8 weeks after the treatment. A dose of 5.0 mg/kg body weight of the poryphin based drug was injected, total irradiation durations were 20 min and 30 min respectively, and the effects and adverse effects were assessed. In this example doses of 2.5 and 5.0 mg/kg body weight respectively, were applied, the patient was irradiated for 20 min, and the therapeutic effects and the adverse effects were assessed.

[2] = Dynamic change of the concentration of HpD and HMME in chicken blood; type: in vivo; details: 10 mg/kg neck vein
Experimental: HpD and HMME in chicken blood were monitored at various times after injection. HpD or HMME was injected in chicken neck veins at a dose of 10 mg/kg, taking a blood sample every 10 minutes following injection. […] The two curves shown in FIG. 2 have generally the same pattern.

[3] = 5.0 mg/kg, irradiation 20 min, 8 weeks after treatment
[4] = 5.0 mg/kg, irradiation 30 min, 8 weeks after treatment
[5] = Part B, 2.5 mg/kg group, irradiated 20 min, 8 weeks after treatment
[6] = Part B, 2.5 mg/kg group, irradiated 20 min, 8 weeks after treatment, 2.5 mg/kg
[7] = Part B, 5.0 mg/kg group, irradiated 20 min, 8 weeks after treatment
[8] = Part B, Purple type PWS, 2.5 mg/kg group, irradiated 20 min
[9] = Part B, Purple type PWS, 5.0 mg/kg group, irradiated 20 min
[10] = Part B, Red type PWS, 2.5 mg/kg group, irradiated 20 min
[11] = Part B, Red type PWS, 5.0 mg/kg group, irradiated 20 min
[12] = Part B, Thickening type PWS, 2.5 mg/kg group, irradiated 20 min
[13] = Part B, Thickening type PWS, 5.0 mg/kg group, irradiated 20 min
[14] = Purple type PWS, 5.0 mg/kg, irradiation 20 min
[15] = Purple type PWS, 5.0 mg/kg, irradiation 30 min
[16] = Red type PWS, 5.0 mg/kg, irradiation 20 min
[17] = Red type PWS, 5.0 mg/kg, irradiation 30 min
[18] = Thickening type PWS, 5.0 mg/kg, irradiation 20 min
[19] = Thickening type PWS, 5.0 mg/kg, irradiation 30 min

hematoporphyrin monomethyl ether [HMME]
Excellent (cases) [1, 3]: 2
Excellent rate % [1, 3]: 10.0%
Good (cases) [1, 3]: 9
Ineffective (cases) [1, 3]: 4
Moderate (cases) [1, 3]: 5
Response rate % [1, 3]: 80.0%
Significant response rate % [1, 3]: 55.0%
Excellent (cases) [1, 4]: 7
Excellent rate % [1, 4]: 36.8%
Good (cases) [1, 4]: 8
Ineffective (cases) [1, 4]: 1
Moderate (cases) [1, 4]: 3
Response rate % [1, 4]: 94.7%
Significant response rate % [1, 4]: 78.9%
Excellent (cases) [1, 5]: 0
Good (cases) [1, 5]: 1
Ineffective (cases) [1, 5]: 24
Moderate (cases) [1, 5]: 15
Significant response rate % [1, 5]: 2.5%
Excellent rate % [1, 6]: 0%
Response rate % [1, 6]: 40%
Excellent (cases) [1, 7]: 2
Excellent rate % [1, 7]: 5.0%
Good (cases) [1, 7]: 14
Ineffective (cases) [1, 7]: 10
Moderate (cases) [1, 7]: 14
Response rate % [1, 7]: 75.0%
Significant response rate % [1, 7]: 40.0%
Excellent (cases) [1, 8]: 0
Excellent rate % [1, 8]: 0.0%
Good (cases) [1, 8]: 0
Ineffective (cases) [1, 8]: 14
Moderate (cases) [1, 8]: 3
Response rate % [1, 8]: 17.6%
Significant response rate % [1, 8]: 0.0%
Excellent (cases) [1, 9]: 0
Excellent rate % [1, 9]: 0.0%
Good (cases) [1, 9]: 7
Ineffective (cases) [1, 9]: 8
Moderate (cases) [1, 9]: 9
Response rate % [1, 9]: 66.7%
Significant response rate % [1, 9]: 29.2%
Excellent (cases) [1, 10]: 0
Excellent rate % [1, 10]: 0.0%
Good (cases) [1, 10]: 1
Ineffective (cases) [1, 10]: 7
Moderate (cases) [1, 10]: 8
Response rate % [1, 10]: 56.3%
Significant response rate % [1, 10]: 6.3%
Excellent (cases) [1, 11]: 2
Excellent rate % [1, 11]: 14.3%
Good (cases) [1, 11]: 7
Ineffective (cases) [1, 11]: 1
Moderate (cases) [1, 11]: 4
Response rate % [1, 11]: 92.9%
Significant response rate % [1, 11]: 64.3%
Excellent (cases) [1, 12]: 0
Excellent rate % [1, 12]: 0/7
Good (cases) [1, 12]: 0
Ineffective (cases) [1, 12]: 3
Moderate (cases) [1, 12]: 4
Response rate % [1, 12]: 4/7
Significant response rate % [1, 12]: 0/7
Excellent (cases) [1, 13]: 0
Excellent rate % [1, 13]: 0/2
Good (cases) [1, 13]: 0
Ineffective (cases) [1, 13]: 1
Moderate (cases) [1, 13]: 1
Response rate % [1, 13]: 1/2
Significant response rate % [1, 13]: 0/2
Excellent (cases) [1, 14]: 0
Excellent rate % [1, 14]: 0/0
Good (cases) [1, 14]: 2
Ineffective (cases) [1, 14]: 1
Moderate (cases) [1, 14]: 3
Response rate % [1, 14]: 5/6
Significant response rate % [1, 14]: 2/6
Excellent (cases) [1, 15]: 1
Excellent rate % [1, 15]: 1/8
Good (cases) [1, 15]: 5
Ineffective (cases) [1, 15]: 0
Moderate (cases) [1, 15]: 2
Response rate % [1, 15]: 8/8
Significant response rate % [1, 15]: 6/8
Excellent (cases) [1, 16]: 2
Excellent rate % [1, 16]: 2/11
Good (cases) [1, 16]: 7
Ineffective (cases) [1, 16]: 0
Moderate (cases) [1, 16]: 2
Response rate % [1, 16]: 11/11
Significant response rate % [1, 16]: 9/11
Excellent (cases) [1, 17]: 6
Excellent rate % [1, 17]: 6/10
Good (cases) [1, 17]: 2
Ineffective (cases) [1, 17]: 1
Moderate (cases) [1, 17]: 1
Response rate % [1, 17]: 9/10
Significant response rate % [1, 17]: 8/10
Excellent (cases) [1, 18]: 0
Excellent rate % [1, 18]: 0/0
Good (cases) [1, 18]: 0
Ineffective (cases) [1, 18]: 3
Moderate (cases) [1, 18]: 0
Response rate % [1, 18]: 0/0
Significant response rate % [1, 18]: 0/0
Excellent (cases) [1, 19]: 0
Excellent rate % [1, 19]: 0/0
Good (cases) [1, 19]: 1
Ineffective (cases) [1, 19]: 0
Moderate (cases) [1, 19]: 0
Response rate % [1, 19]: 1/1
Significant response rate % [1, 19]: 1/1
Photosensitizer concentration in chicken blood ([2]; post-injection time 10 min): 6.83 µg/mL
Photosensitizer concentration in chicken blood ([2]; post-injection time 20 min): 5.92 µg/mL
Photosensitizer concentration in chicken blood ([2]; post-injection time 30 min): 5.33 µg/mL
Photosensitizer concentration in chicken blood ([2]; post-injection time 40 min): 4.83 µg/mL
Photosensitizer concentration in chicken blood ([2]; post-injection time 50 min): 4.49 µg/mL
Photosensitizer concentration in chicken blood ([2]; post-injection time 60 min): 4.17 µg/mL
Photosensitizer concentration in chicken blood ([2]; post-injection time 70 min): 3.83 µg/mL
Photosensitizer concentration in chicken blood ([2]; post-injection time 80 min): 3.58 µg/mL
Photosensitizer concentration in chicken blood ([2]; post-injection time 90 min): 3.51 µg/mL
Photosensitizer concentration in chicken blood ([2]; post-injection time 100 min): 2.67 µg/mL
Photosensitizer concentration in chicken blood ([2]; post-injection time 110 min): 2.42 µg/mL
Photosensitizer concentration in chicken blood ([2]; post-injection time 120 min): 1.99 µg/mL
time after injection at which serum concentration reaches a peak ([2]; chicken): 10 min
